pKi: −log10 of the molar value.

The target in this assay is GHS-R (Homo sapiens, UniProt Q92847). Kind of assay: GHS-R antagonist activity (Ki) in a cell based assay. A digest of the protocol: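 Transfected COS-7 cells were labelled 24 h with [^3H]-myo-inositol and preincubated 30 min at 37 °C in HEPES buffer pH 7.4 with 10 mM LiCl, optionally with 1 U/ml adenosine deaminase. Compound was applied for 45 min at 37 °C. [^3H]-inositol phosphates were extracted with perchloric acid and isolated by anion-exchange resin.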
Sequence of GHS-R (Q92847 whole entry, species assumed): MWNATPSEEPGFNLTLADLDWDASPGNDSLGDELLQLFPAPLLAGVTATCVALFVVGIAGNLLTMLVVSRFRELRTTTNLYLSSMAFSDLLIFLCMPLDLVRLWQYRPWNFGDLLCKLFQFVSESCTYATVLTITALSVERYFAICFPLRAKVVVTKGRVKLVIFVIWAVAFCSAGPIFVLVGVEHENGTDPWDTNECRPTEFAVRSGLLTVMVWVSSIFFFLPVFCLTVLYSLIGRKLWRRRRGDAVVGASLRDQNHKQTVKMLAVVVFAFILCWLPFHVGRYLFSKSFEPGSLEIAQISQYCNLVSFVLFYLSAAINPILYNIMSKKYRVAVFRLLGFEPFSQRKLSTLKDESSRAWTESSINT
For orientation: pKi means the Ki on a negative log10 scale, so that one unit is a factor of ten. Read a high pKi as a low Ki. Turning to `CCN(CC)CCCS(=O)(=O)N1CCC[C@H]1c1nc(Cc2ccc(Br)cc2)no1` [Compound 142, (S)-(3-{2-[3-(4-Bromo-benzyl)-[1,2,4]oxadiazol-5-yl]-pyrrolidine-1-sulfonyl}-propyl)-diethyl-amine], the pKi is 6.30 to 7.00.
Under `CCN(CC)CCCS(=O)(=O)N1CCC[C@H]1c1nc(-c2ccc(OC)cc2)no1` [Compound 143, (S)-Diethyl-(3-{2-[3-(4-methoxy-phenyl)-[1,2,4]oxadiazol-5-yl]-pyrrolidine-1-sulfonyl}-propyl)-amine] stands 6.30 to 7.00; under `CCN(CC)CCCS(=O)(=O)N1CCC[C@@H]1c1nc(-c2ccc(OC)cc2)no1` [Compound 144, (R)-Diethyl-(3-{2-[3-(4-methoxy-phenyl)-[1,2,4]oxadiazol-5-yl]-pyrrolidine-1-sulfonyl}-propyl)-amine], 6.30 to 7.00; under `CCN(CC)CCCS(=O)(=O)N1CCC[C@@H]1c1nc(Cc2ccc(Br)cc2)no1` [Compound 145, (R)-(3-{2-[3-(4-Bromo-benzyl)-[1,2,4]oxadiazol-5-yl]-pyrrolidine-1-sulfonyl}-propyl)-diethyl-amine], 6.30 to 7.00.
In turn, `CCN(CC)CCCS(=O)(=O)N[C@@H](C)c1nc(Cc2ccc(Br)cc2)no1` [Compound 146, (S)-3-Diethylamino-propane-1-sulfonic acid {1-[3-(4-bromo-benzyl)-[1,2,4]oxadiazol-5-yl]-ethyl}-amide] gave a pKi of 6.30 to 7.00.
`CCN(CC)CCCS(=O)(=O)N[C@H](C)c1nc(Cc2ccc(Br)cc2)no1` [Compound 147, (R)-3-Diethylamino-propane-1-sulfonic acid {1-[3-(4-bromo-benzyl)-[1,2,4]oxadiazol-5-yl]-ethyl}-amide]: the pKi was 6.30 to 7.00.
`CCN(CC)CCCS(=O)(=O)NCc1nc(-c2ccc(OC)cc2)no1` [Compound 148, 3-Diethylamino-propane-1-sulfonic acid [3-(4-methoxy-phenyl)-[1,2,4]oxadiazol-5-ylmethyl]-amide]: the pKi is 6.00 to 6.30.
Compound `CCN(CC)CCCS(=O)(=O)N1CC[C@H]1c1nc(Cc2ccc(Br)cc2)no1` [Compound 149, (S)-(3-{2-[3-(4-Bromo-benzyl)-[1,2,4]oxadiazol-5-yl]-azetidine-1-sulfonyl}-propyl)-diethyl-amine] gave a pKi greater than 7.00.
On to `CCN(CC)CCCS(=O)(=O)N[C@@H](C)c1nc(-c2ccc(OC)cc2)no1` [Compound 150, (S)-3-Diethylamino-propane-1-sulfonic acid {1-[3-(4-methoxy-phenyl)-[1,2,4]oxadiazol-5-yl]-ethyl}-amide], for which the pKi was 6.30 to 7.00.
Then `CCN(CC)CCCS(=O)(=O)NCc1nc(Cc2ccc(Br)cc2)no1` [Compound 151, 3-Diethylamino-propane-1-sulfonic acid [3-(4-bromo-benzyl)-[1,2,4]oxadiazol-5-ylmethyl]-amide], with 6.30 to 7.00.
Under `CCN(CC)CCCS(=O)(=O)N[C@H](C)c1nc(-c2ccc(OC)cc2)no1` [Compound 152, (R)-3-Diethylamino-propane-1-sulfonic acid {1-[3-(4-methoxy-phenyl)-[1,2,4]oxadiazol-5-yl]-ethyl}-amide] stands 6.30 to 7.00; under `CCN(CC)CCCS(=O)(=O)N1CC[C@H]1c1nc(-c2ccc(OC)cc2)no1` [Compound 153, (S)-Diethyl-(3-{2-[3-(4-methoxy-phenyl)-[1,2,4]oxadiazol-5-yl]-azetidine-1-sulfonyl}-propyl)-amine], greater than 7.00.
Then `CCN(CC)CCCS(=O)(=O)NC(C)(C)c1nc(Cc2ccc(Br)cc2)no1` [Compound 154, 3-Diethylamino-propane-1-sulfonic acid {1-[3-(4-bromo-benzyl)-[1,2,4]oxadiazol-5-yl]-1-methyl-ethyl}-amide], with greater than 7.00; and `CCN(CC)CCCS(=O)(=O)NC(C)(C)c1nc(-c2ccc(OC)cc2)no1` [Compound 155, 3-Diethylamino-propane-1-sulfonic acid {1-[3-(4-methoxy-phenyl)-[1,2,4]oxadiazol-5-yl]-1-methyl-ethyl}-amide], with 6.30 to 7.00; and `CCN(CC)CCCS(=O)(=O)NCc1nc(-c2ccc(OC)cc2)n[nH]1` [Compound 156, 3-Diethylamino-propane-1-sulfonic acid [5-(4-methoxy-phenyl)-2H-[1,2,4]triazol-3-ylmethyl]-amide], with 6.30 to 7.00.
`CCN(CC)CCCS(=O)(=O)NCc1nc(Cc2ccc(Cl)cc2)n[nH]1` [Compound 157, 3-Diethylamino-propane-1-sulfonic acid [5-(4-chloro-benzyl)-2H-[1,2,4]triazol-3-ylmethyl]-amide]: the pKi was 6.30 to 7.00.
Under `CCN(CC)CCCS(=O)(=O)N[C@@H](CC(C)C)c1nc(-c2ccc(OC)cc2)n[nH]1` [Compound 159, (S)-3-Diethylamino-propane-1-sulfonic acid {1-[5-(4-methoxy-phenyl)-2H-[1,2,4]triazol-3-yl]-3-methyl-butyl}-amide] stands 6.30 to 7.00; under `CCN(CC)CCCS(=O)(=O)N[C@H](CC(C)C)c1nc(-c2ccc(OC)cc2)n[nH]1` [Compound 160, (R)-3-Diethylamino-propane-1-sulfonic acid {1-[5-(4-methoxy-phenyl)-2H-[1,2,4]triazol-3-yl]-3-methyl-butyl}-amide], 6.30 to 7.00.

Values taken from patent US7829589B2, “Sulfonamide compounds and uses thereof” (Elixir Pharmaceuticals, Inc., priority 2005, dated 2010).
